According to patent publication US7268129B2, “Fluorinated benzothiadiazine compounds” (Les Laboratoires Servier, priority 2005, dated 2007):
Read-outs that look alike come from different tables or passages of the source.

Key:
AMPA receptors = experiment: Effect of compounds on the ionic current induced by AMPA in Xenopus oocytes; type: cell-based; details: Xenopus oocytes injected with rat cerebral cortex mRNA, (S)-AMPA 10 μM, voltage-clamp
Protocol: mRNA's are prepared from cerebral cortex of male Wistar rats by the caesium chloride/guanidium thiocyanate method. The poly (A^+) mRNA's are isolated using the PolyATtract mRNA Isolation systems kit (Promega, USA) and injected at a level of 50 ng per oocyte. The oocytes are incubated for 3 to 4 days at 18° C. to permit expression of the receptors and are then stored at 4° C. until used.
Electrophysiological recordings are carried out continuously at ambient temperature in a Plexiglass® chamber using OR2 medium (J. Exp. Zool., 1973, 184, 321-334) by the “voltage-clamp” method using two electrodes, with a third electrode placed in the bath serving as reference.
All the compounds and the AMPA are applied via the perfusion medium. (S)-AMPA is used in a concentration of 10 μM. The ionic current induced by the application of AMPA in the absence and presence of compounds is measured. For each compound studied, the concentration that doubles (EC2×) or quintuples (EC5×) the intensity of the current induced by AMPA alone (5 to 50 nA) is determined.

[1] = tested on: Wistar rats aged 3 months; experiment: Object recognition in adult Wistar rats aged 3 months; type: in vivo, rat; details: male Wistar rats aged 3 months; 0.03 to 1 mg/kg by the oral route 60 minutes before each session; 24 hours between sessions
Description: The object recognition test in the Wistar rat was initially developed by ENNACEUR and DECACOUR (Behav. Brain Res., 1988, 31, 47-59). The test is based on the spontaneous exploratory activity of the animal and has the characteristics of episodic memory in humans. This memory test is sensitive to ageing (SCALL et al., Eur. J. Pharmacol., 1997, 325, 173-180) and to cholinergic dysfunctions (BARTOLINI et al., Pharm. Biochem. Behav. 1996, 53(2), 277-283) and is based on the differences in the exploration of 2 objects of fairly similar shape—one familiar, the other new. Prior to the test, the animals (male Wistar rats aged 3 months: CERJ, France) are habituated to the environment (an enclosure without an object). In the course of a first session, the rats are placed (3 minutes) in the enclosure, in which there are 2 identical objects. The duration of exploration is measured for each object. In the course of the second session (3 minutes), 24 hours later, 1 of the 2 objects is replaced by a new object. The duration of exploration is measured for each object. The assessment criterion is the difference, Delta, expressed in seconds, between the exploration times for the new object and for the familiar object in the course of the second session.

[2] = tested on: Wistar rats aged 17 months; experiment: Object recognition in Wistar rats aged 17 months; type: in vivo, rat; details: male Wistar rats aged 17 months; 0.1 mg/kg by the oral route; 1 hour between sessions
Protocol: In old rats there is a deficiency in memory retention in the object recognition test. Prior to the test, the animals (male Wistar rats aged 17 months: CERJ, France) are habituated to the environment (an enclosure without an object). In the course of a first session, the rats are placed (3 minutes) in the enclosure, in which there are 2 identical objects. The duration of exploration is measured for each object. In the course of the second session (3 minutes), 1 hour later, 1 of the 2 objects is replaced by a new object. The duration of exploration is measured for each object. The assessment criterion is the difference, Delta, expressed in seconds, between the exploration times for the new object and for the familiar object in the course of the second session.

## O=S1(=O)NCN(CCF)c2ccc(Cl)cc21 [Example 1, 7-Chloro-4-(2-fluoroethyl)-3,4-dihydro-2H-1,2,4-benzothiadiazine 1,1-dioxide]
AMPA receptors; read-out: EC2× (concentration that doubles the intensity of the current induced by AMPA alone)
  concentration multiplying AMPA current (EC2× / EC5×): 6.7 ± 1.4 µM
AMPA receptors; read-out: EC5× (concentration that quintuples the intensity of the current induced by AMPA alone)
  concentration multiplying AMPA current (EC2× / EC5×): 14.5 ± 0.6 µM
[1]
  memory retention (object recognition, Delta of exploration times): significantly improves memory retention
[2]
  age-related deficiency in memory retention (object recognition): significantly opposes the age-related deficiency in memory retention
